# Measurements taken from EP4722219A1 (Gan & Lee Pharmaceuticals Co., Ltd., priority 2023, dated 2024).
# Numbering of substitutions follows the chain as printed.
# How the values were obtained:
# Type in all cases: cell-based
# LNCaP cells = assay: Inhibition of LNCaP cell proliferation (WST-8); settings: Homo sapiens, LNCaP FGC cells, 96 hours
# Description: The inhibitory activity of compounds disclosed in the present invention on LNCaP cell proliferation
# The cells were cultured overnight in a 37°C, 5% CO2 cell incubator. […] The final concentration of the compound was 9 concentration points of 5-fold serial dilution starting from 10 µM. […] The cells were cultured in a cell culture incubator at 37°C and 5% CO2 for 96 hours. On the sixth day, the 96-well cell culture plate was removed, and 1/10 volume of WST-8 (Beytime, C0040) reagent was added to each well. The absorbance at 450 nm was detected using a microplate reader (TECAN, F50).
# AR protein [1] = target: T1, AR protein (Homo sapiens, UniProt P10275, T878A); assay: AR protein degradation in LNCaP cells (Western blot); settings: 8 hours
# T1 construct: host or cells: LNCaP FGC
# T1 sequence (P10275 1-920 T878A): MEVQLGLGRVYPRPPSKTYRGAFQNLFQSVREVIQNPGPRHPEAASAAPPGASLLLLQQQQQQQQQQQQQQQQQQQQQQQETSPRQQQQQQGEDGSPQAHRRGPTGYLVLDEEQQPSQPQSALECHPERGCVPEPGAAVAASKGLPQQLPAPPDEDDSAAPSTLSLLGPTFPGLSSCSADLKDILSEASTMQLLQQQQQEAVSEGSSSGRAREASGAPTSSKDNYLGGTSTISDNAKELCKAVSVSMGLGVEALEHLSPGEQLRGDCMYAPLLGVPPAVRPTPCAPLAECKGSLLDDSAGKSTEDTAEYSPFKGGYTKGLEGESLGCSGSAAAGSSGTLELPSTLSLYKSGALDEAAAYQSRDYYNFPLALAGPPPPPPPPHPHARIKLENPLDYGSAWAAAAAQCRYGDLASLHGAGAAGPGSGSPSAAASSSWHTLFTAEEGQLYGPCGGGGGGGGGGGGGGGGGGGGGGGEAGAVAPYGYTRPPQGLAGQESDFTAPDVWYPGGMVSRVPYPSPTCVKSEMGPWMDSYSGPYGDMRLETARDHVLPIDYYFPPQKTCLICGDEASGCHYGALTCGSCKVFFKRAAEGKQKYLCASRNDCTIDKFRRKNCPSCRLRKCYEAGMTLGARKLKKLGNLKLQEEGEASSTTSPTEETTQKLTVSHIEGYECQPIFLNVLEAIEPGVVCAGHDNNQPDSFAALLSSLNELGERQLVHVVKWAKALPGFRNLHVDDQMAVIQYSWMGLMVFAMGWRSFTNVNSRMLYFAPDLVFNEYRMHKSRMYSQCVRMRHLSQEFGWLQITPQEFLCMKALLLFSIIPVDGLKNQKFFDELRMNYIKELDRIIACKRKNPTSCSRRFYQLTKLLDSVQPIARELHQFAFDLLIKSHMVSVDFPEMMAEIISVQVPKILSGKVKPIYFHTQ
# Description: At the same time, the corresponding solvent control was set and cultured for 8 hours. After 8 hours of culture, the culture medium was removed, the cells were washed with PBS, and RIPA lysis buffer containing 1% Protease Inhibitor Cocktail was added. After lysis and centrifugation, the total protein extract was obtained, and the protein concentration in the extract was detected by BCA method. Protein electrophoresis was performed using SDS-PAGE, and then the protein was transferred to a PVDF (Millipore Sigma catalog number PSRP010R5) membrane at a constant voltage of 100V for 60 minutes. The PVDF membrane was placed in a 5% milk powder 1 ×TBST solution and blocked at room temperature for 1 hour. […] The primary antibody solution was discarded and the PVDF membrane was washed with 1×TBST for 5 minutes each time, for three times. […] The secondary antibody solution was discarded and the PVDF membrane was washed with 1 ×TBST for 5 minutes each time, for three times. A dual-color infrared laser imaging system (Licor catalog number Odyssey CLX) was used for Western membrane imaging. The Image Studio software was used to analyze the grayscale of the bands. GAPDH protein bands were also detected for each sample as the reference. The AR protein degradation rate of the compound and the positive control sample was calculated based on the grayscale of the protein bands.
# VCaP cells = assay: Inhibition of VCaP cell proliferation (WST-8); settings: Homo sapiens, 168 hours
# Description: On the first day of the experiment, VCaP cells were seeded at a density of 15,000 cells/well in a 96-well plate using DMEM medium containing 10% fetal bovine serum, with 100µL of cell suspension per well, and cultured overnight in a cell incubator at 37°C and 5% CO2. On the second day, 100µL of the compound of the present invention and the positive control ARV-110 (source: Anaiji) prepared in culture medium at different concentrations were added to each well. The final concentration of the compound was 9 concentration points of 5-fold serial dilution starting from 10 µM. […] On the ninth day, the 96-well cell culture plate was removed and 1/10 volume of WST-8 (Beytime, C0040) reagent was added to each well. The absorbance at 450nm was measured using a microplate reader (TECAN, F50).
# AR protein [2] = target: T2, AR protein (Homo sapiens, UniProt P10275); assay: AR protein degradation in VCaP cells (Western blot); settings: 8h
# T2 construct: host or cells: VCaP
# T2 sequence (P10275 1-920): T1 sequence (P10275 1-920 T878A) with A878T
# Description: The degradation activity of the compounds disclosed in the present invention on AR protein in VCaP cells (cell source: ATCC)
# The AR-positive human prostate cancer cells VCaP cultured in DMEM (GiBco catalog number 11995-065) containing 10% FBS (Hyclone catalog number SH30406.05) was inoculated in a six-well microplate (Thermo catalog number 140675) at a concentration of 3×10^5 cells/ well. After being cultured overnight in a carbon dioxide incubator (ESCO), the prepared compound of the present invention and the positive control sample ARV-766 (Annaiji) solution of different concentrations were added at a volume of 1 µL/well to make the final concentrations of the compound and the positive control sample reach 5nM and 0.5nM, respectively. At the same time, the corresponding solvent control was set and cultured for 8h. After 8h of culture, the culture medium was removed, and the cells were washed with PBS. RIPA lysis buffer containing 1% Protease Inhibitor Cocktail was added. After lysis and centrifugation, a total protein extract was obtained, and the protein concentration in the extract was detected by BCA method. Protein electrophoresis was performed using SDS-PAGE, and then the protein was transferred to a PVDF (Millipore Sigma catalog number PSRP010R5) membrane at a constant voltage of 100V for 60min. The PVDF membrane was placed in a 5% milk powder 1×TBST solution and blocked at room temperature for 1h. The primary antibody solution (Anti-Androgen receptor, Cell Signaling Technology catalog number: 5153S; 1:2000 dilution) was prepared and was incubated at 4°C overnight. The primary antibody solution was discarded and the PVDF membrane was washed with 1×TBST for 5 minutes each time, for three times. The secondary antibody solution (Thermo catalog number SA5-35571; 1:7500 dilution) was prepared and was incubated at room temperature for 1 hour. The secondary antibody solution was discarded and the PVDF membrane was washed with 1×TBST for 5 minutes each time, for three times. A dual-color infrared laser imaging system (Licor catalog number Odyssey CLX) was used for Western membrane imaging. Image Studio software was used to analyze the grayscale of the bands. GAPDH protein bands were also detected for each sample as the reference. The AR protein degradation rate of the compound and the positive control sample was calculated based on the grayscale of the protein bands.
# Table 7 Degradation rate of AR protein in VCaP cells by the compounds disclosed in the present invention
SMILES,IC50 (LNCaP cells),IC50 (VCaP cells),also measured
COc1cc2c(cc1C(=O)N[C@H]1CCC(=O)NC1=O)CCC1(CCN(CC3CCN(c4ccc(N5CCC6(CC5)C[C@H](C)N(c5ccc(C#N)c(Cl)c5)C6)cc4)CC3)CC1)O2 [A-P-54],0.91 µM,0.007 µM,"Degradation of AR protein in LNCaP cells, 10 nM (%) (AR protein [1]; 10 nM): 40%; Degradation of AR protein in LNCaP cells, 100 nM (%) (AR protein [1]; 100 nM): 74%"
COc1cc(O[C@H]2C(C)(C)[C@H](NC(=O)c3ccc(N4CCC(CN5CCC6(CC5)COc5c6ccc6c5n(C)c(=O)n6C5CCC(=O)NC5=O)CC4)cc3)C2(C)C)ccc1C#N (some centres unmarked) [A-P-28],20.7 µM,,percent AR protein degradation at a fixed concentration at 0.01 µM (AR protein [1]; 10 nM): 64%; percent AR protein degradation at a fixed concentration at 0.1 µM (AR protein [1]; 100 nM): 32%; AR protein degradation rate at fixed concentration (%) at 0.0005 µM (AR protein [2]; 0.5 nM): 80%; AR protein degradation rate at fixed concentration (%) at 0.005 µM (AR protein [2]; 5 nM): 80%
"C[C@H]1CC2(CCN(c3ccc(C(=O)N4CCC(CN5CCC6(CC5)COc5cc(NC7CCC(=O)NC7=O)ccc56)CC4)cc3)CC2)CN1c1ccc(C#N)c(Cl)c1 (some centres unmarked) [A-P-87, 2-chloro-4-((3 S)-8-(4-(4-((6-((2,6-dioxopiperidin-3-yl)amino)-2H-spiro[benzofuran-3,4'-piperidin]-1'-yl)methyl)piperidin-1-carbonyl)phenyl)-3-methyl-2,8-diazaspiro[4.5]decan-2-yl)benzonitrile]",0.14 µM,0.0014 µM,
C[C@H]1CC2(CCN(c3ccc(C(=O)N4CCC(CN5CCN6c7cc(F)c(C(=O)N[C@H]8CCC(=O)NC8=O)cc7OC[C@H]6C5)CC4)cc3)CC2)CN1c1ccc(C#N)c(Cl)c1 [A-P-60],0.69 µM,0.94 µM,
"C[C@H]1CC2(CCN(c3ccc(C(=O)N4CCC(CN5CCC6(CC5)COc5ccc(NC7CCC(=O)NC7=O)cc56)CC4)cc3)CC2)CN1c1ccc(C#N)c(Cl)c1 (some centres unmarked) [A-P-98, 2-chloro-4-((3 S)-8-(4-(4-((5-((2,6-dioxopiperidin-3-yl)amino)-2H-spiro[benzofuran-3,4'-piperidin]-1'-yl)methyl)piperidin-1-carbonyl)phenyl)-3-methyl-2,8-diazaspiro[4.5]decan-2-yl)benzonitrile]",0.43 µM,0.006 µM,
"C[C@H]1CC2(CCN(c3ccc(C(=O)N4CCC(CN5CCC6(CC5)Cc5ccc(NC7CCC(=O)NC7=O)cc5O6)CC4)cc3)CC2)CN1c1ccc(C#N)c(Cl)c1 (stereo partly drawn) [A-P-94, 2-chloro-4-((3S)-8-(4-(4-((6-((2,6-dioxopiperidin-3-yl)amino)-3H-spiro[benzofuran-2,4'-piperidin]-1'-yl)methyl)piperidin-1-carbonyl)phenyl)-3-methyl-2,8-diazaspiro[4.5]decan-2-yl)benzonitrile]",0.39 µM,0.0015 µM,
"C[C@H]1CC2(CCN(c3ccc(N4CCC(CN5CCN6c7cc(F)c(C(=O)N[C@H]8CCC(=O)NC8=O)cc7OC[C@H]6C5)CC4)cc3)CC2)CN1c1ccc(C#N)c(Cl)c1 [A-P-59, (R)-3-((1-(4-((S)-2-(3-chloro-4-cyanophenyl)-3-methyl-2,8-diazaspiro[4.5]decan-8-yl)phenyl)piperidin-4-yl)methyl)-N-((S)-2,6-dioxopiperidin-3-yl)-9-fluoro-1,2,3,4,4a,5-hexahydrobenzo[b]pyrazi no[1,2-d][1,4]oxazine-8-carboxamide]",0.15 µM,0.16 µM,
COc1cc2c(cc1C(=O)N[C@H]1CCC(=O)NC1=O)OC[C@H]1CN(CC3CCN(C(=O)c4ccc(N5CCC6(CC5)C[C@H](C)N(c5ccc(C#N)c(Cl)c5)C6)cc4)CC3)CCN21 [A-P-76],2.84 µM,0.078 µM,
COc1cc2c(cc1C(=O)N[C@H]1CCC(=O)NC1=O)OC[C@H]1CN(CC3CCN(c4ccc(N5CCC6(CC5)C[C@H](C)N(c5ccc(C#N)c(Cl)c5)C6)cc4)CC3)CCN21 [A-P-75],0.35 µM,0.042 µM,
